# From patent publication US9783505B2, “Substituted diaminopyrimidyl compounds, compositions thereof, and methods of treatment therewith” (Signal Pharmaceuticals, LLC, priority 2013, dated 2017)
# Biological target: T1, His-PKC-theta (Homo sapiens, UniProt Q04759)
# T1 construct: His; purchased Invitrogen
# Experiment: PKC-theta Assay (384-well time resolved fluorescence, IMAP TR-FRET)
# Format: biochemical
# Details: Table 2; read-out: Act. Level (IC50 in the PKC-theta Assay)
# Experimental: PKC-theta Assay. A 384-well time resolved fluorescence assay was used to monitor PKC-theta activity. The PKC-theta assay was run in the following assay buffer: 50 mM HEPES pH 7.6, 10 mM MgCl2, 1 mM DTT, 0.01% Triton X-100, 0.01% BSA and 0.1 mM EDTA. To initiate the reaction, 200 nM of Fam-labeled S6-derived peptide (Molecular Devices) and 10 μM of ATP were mixed with 142 pM of His-PKC-theta (Invitrogen) for a total assay volume of 25 μL in each well. The assay was incubated at room temperature for 2 hours and terminated using a 60 μL/well mixture of Detection Binding Solution: 70% IMAP Progressive Binding Buffer A, 30% IMAP Progressive Binding Buffer B, 1:600 Progressive Binding Reagent, and 1:400 TR-FRET Tb Donor (Molecular Devices). The assay plates were then incubated overnight at room temperature and read on a Perkin-Elmer Envision Reader.
# T1 sequence (Q04759 whole entry): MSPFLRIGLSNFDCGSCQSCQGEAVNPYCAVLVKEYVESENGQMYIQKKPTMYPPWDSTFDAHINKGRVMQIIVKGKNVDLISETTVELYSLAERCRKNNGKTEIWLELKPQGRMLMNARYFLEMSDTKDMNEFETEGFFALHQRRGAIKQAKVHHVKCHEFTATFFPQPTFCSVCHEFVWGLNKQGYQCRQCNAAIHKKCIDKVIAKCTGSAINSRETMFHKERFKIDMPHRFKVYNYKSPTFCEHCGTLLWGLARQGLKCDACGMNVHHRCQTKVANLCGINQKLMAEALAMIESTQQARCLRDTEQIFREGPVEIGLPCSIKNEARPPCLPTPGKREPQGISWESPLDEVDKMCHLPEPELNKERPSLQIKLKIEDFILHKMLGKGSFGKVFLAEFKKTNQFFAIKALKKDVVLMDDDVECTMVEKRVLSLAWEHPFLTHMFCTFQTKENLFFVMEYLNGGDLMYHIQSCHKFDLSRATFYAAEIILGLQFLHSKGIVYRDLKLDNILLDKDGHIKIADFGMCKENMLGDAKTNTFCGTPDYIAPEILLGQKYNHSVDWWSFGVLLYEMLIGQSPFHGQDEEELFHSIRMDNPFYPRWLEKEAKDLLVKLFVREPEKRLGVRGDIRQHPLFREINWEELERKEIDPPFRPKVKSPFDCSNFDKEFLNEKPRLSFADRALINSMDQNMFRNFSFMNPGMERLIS
row,IC50,Structure (SMILES)
1,< 100 nM,Cc1nnnn1-c1ccccc1CNc1ncc(C#N)c(NC2CCC(O)C(C)(C)C2)n1 (stereo not shown) [Cmpd 1]
2,< 100 nM,Cc1nnnn1-c1ccccc1CNc1ncc(C(F)(F)F)c(NC2CCC(O)C(C)(C)C2)n1 (stereo not shown) [Cmpd 2]
3,< 100 nM,N#Cc1cnc(NCc2cc(F)ccc2C(F)(F)F)nc1N[C@H]1CC[C@@H](O)CC1 [Cmpd 3]
4,100 to 800 nM,N#Cc1cnc(NCc2ccccc2OC(F)F)nc1N[C@H]1CC[C@@H](O)CC1 [Cmpd 4]
5,100 to 800 nM,CC(C)Oc1ccccc1CNc1ncc(C#N)c(N[C@H]2CC[C@@H](O)CC2)n1 [Cmpd 5]
6,100 to 800 nM,CC(C)(O)CNc1nc(NCc2cnccc2C(F)(F)F)ncc1C#N [Cmpd 6]
7,100 to 800 nM,Cc1c(CO)cccc1Nc1nc(NCc2cnccc2C(F)(F)F)ncc1C#N [Cmpd 7]
8,100 to 800 nM,N#Cc1cnc(NCc2ccccc2C(F)(F)F)nc1N[C@H]1CC[C@@H](O)CC1 [Cmpd 8]
9,100 to 800 nM,N#Cc1cnc(NCc2ccccc2Cl)nc1N[C@H]1CC[C@@H](O)CC1 [Cmpd 9]
10,100 to 800 nM,N#Cc1cnc(NCc2ccccc2-c2ccccc2)nc1N[C@H]1CC[C@@H](O)CC1 [Cmpd 10]
11,800 to 2000 nM,N#Cc1cnc(NCc2ccccc2Oc2ccc(F)cc2)nc1N[C@H]1CC[C@@H](O)CC1 [Cmpd 12]
12,800 to 2000 nM,N#Cc1cnc(NCc2ccccc2N2CCOCC2)nc1N[C@H]1CC[C@@H](O)CC1 [Cmpd 13]
13,100 to 800 nM,CC(C)(CO)Nc1nc(NCc2cnccc2C(F)(F)F)ncc1C#N [Cmpd 15]
14,100 to 800 nM,N#Cc1cnc(NCc2c(F)cccc2Cl)nc1N[C@H]1CC[C@@H](O)CC1 [Cmpd 16]
15,800 to 2000 nM,N#Cc1cnc(NCc2ccccc2OC(F)(F)F)nc1N[C@H]1CC[C@@H](O)CC1 [Cmpd 17]
16,2000 to 10000 nM,Cc1nnnn1-c1ccccc1CNc1ncc(C#N)c(N[C@@H]2CC[C@@H](O)C(C)(C)C2)n1 [Cmpd 18]
17,2000 to 10000 nM,Cc1ccccc1CNc1ncc(C#N)c(N[C@H]2CC[C@@H](O)CC2)n1 [Cmpd 19]
18,2000 to 10000 nM,N#Cc1cnc(NCc2ccc(F)cc2F)nc1N[C@H]1CC[C@@H](O)CC1 [Cmpd 20]
19,2000 to 10000 nM,N#Cc1cnc(NCc2ccccc2-n2cccn2)nc1N[C@H]1CC[C@@H](O)CC1 [Cmpd 21]
20,2000 to 10000 nM,COc1cccc(F)c1CNc1ncc(C#N)c(N[C@H]2CC[C@@H](O)CC2)n1 [Cmpd 22]
21,2000 to 10000 nM,CCOc1cccc(F)c1CNc1ncc(C#N)c(N[C@H]2CC[C@@H](O)CC2)n1 [Cmpd 23]

row,IC50,Structure (SMILES)
1,2000 to 10000 nM,Cc1nnnn1-c1ccccc1CNc1ncc(C(F)(F)F)c(N[C@H]2CC[C@@H](O)C(C)(C)C2)n1 [Cmpd 24]
2,2000 to 10000 nM,Cc1nnnn1-c1ccccc1CNc1ncc(C#N)c(N[C@H]2CC[C@@H](O)C(C)(C)C2)n1 [Cmpd 25]
3,2000 to 10000 nM,CN1CCN(c2ccccc2CNc2ncc(C#N)c(N[C@H]3CC[C@@H](O)CC3)n2)CC1 [Cmpd 27]
4,2000 to 10000 nM,N#Cc1cnc(NCc2ccccc2)nc1N[C@H]1CC[C@@H](O)CC1 [Cmpd 28]
5,< 100 nM,CC1(C)C[C@H](Nc2nc(NCCc3ccc(O)cc3)ncc2C#N)CC[C@@H]1O [Cmpd 29]
6,100 to 800 nM,COc1ccccc1CCNc1ncc(C#N)c(N[C@@H]2CC[C@H](O)C(C)(C)C2)n1 [Cmpd 30]
7,< 100 nM,COc1cccc(CCNc2ncc(C#N)c(N[C@@H]3CC[C@H](O)C(C)(C)C3)n2)c1 [Cmpd 31]
8,< 100 nM,CC1(C)C[C@H](Nc2nc(NCCc3cccc(Cl)c3)ncc2C#N)CC[C@@H]1O [Cmpd 32]
9,100 to 800 nM,CC1(C)C[C@H](Nc2nc(NCCc3ccc(Cl)cc3)ncc2C#N)CC[C@@H]1O [Cmpd 33]
10,100 to 800 nM,CCc1ccc(CCNc2ncc(C#N)c(N[C@@H]3CC[C@H](O)C(C)(C)C3)n2)cc1 [Cmpd 34]
11,< 100 nM,Cc1ccc(CCNc2ncc(C#N)c(N[C@@H]3CC[C@H](O)C(C)(C)C3)n2)cc1C [Cmpd 35]
12,100 to 800 nM,COc1ccc(CCNc2ncc(C#N)c(N[C@@H]3CC[C@H](O)C(C)(C)C3)n2)cc1OC [Cmpd 36]
13,100 to 800 nM,CC1(C)C[C@H](Nc2nc(NCCc3ccc(C#N)cc3)ncc2C#N)CC[C@@H]1O [Cmpd 37]
14,100 to 800 nM,CC1(C)[C@@H](O)C[C@H]1Nc1nc(NCCc2ccc(C#N)cc2)ncc1C#N [Cmpd 38]
15,2000 to 10000 nM,COc1ccc(C(CNc2ncc(C#N)c(N[C@@H]3CC[C@H](O)C(C)(C)C3)n2)N2CCOCC2)cc1 (stereo partly shown) [Cmpd 39]
16,2000 to 10000 nM,CC(C)(CNc1ncc(C#N)c(N[C@@H]2C[C@H](O)C2(C)C)n1)c1cccc(Cl)c1 [Cmpd 40]
17,800 to 2000 nM,C[C@@H](CNc1ncc(C#N)c(N[C@@H]2C[C@H](O)C2(C)C)n1)c1ccccc1 [Cmpd 41]
18,100 to 800 nM,C[C@H](CNc1ncc(C#N)c(N[C@@H]2C[C@H](O)C2(C)C)n1)c1ccccc1 [Cmpd 42]
19,100 to 800 nM,CC1(C)[C@@H](O)C[C@H]1Nc1nc(NCC(F)(F)c2ccccc2)ncc1C#N [Cmpd 43]
20,100 to 800 nM,CC1(C)[C@@H](O)C[C@H]1Nc1nc(NCCc2ccccc2C(F)(F)F)ncc1C#N [Cmpd 44]

# Same assay, conditions: read-out: Act. Level (IC50 in the PKC-theta Assay)
row,IC50,Structure (SMILES)
1,< 100 nM,CC(C)(F)c1ncncc1CNc1ncc(C(F)(F)F)c(N[C@@H]2C[C@H](O)C2(C)C)n1 [Cmpd 1]
2,< 100 nM,CC1(C)[C@@H](O)C[C@H]1Nc1nc(NCc2cncnc2OCCC(F)(F)F)ncc1C(F)(F)F [Cmpd 2]
3,< 100 nM,COC1CC(Nc2nc(NCc3cnccc3C(F)(F)F)ncc2C(F)(F)F)C1(C)C (stereo not shown) [Cmpd 3]
4,< 100 nM,CC1(C)[C@@H](O)C[C@H]1Nc1nc(NCc2cncnc2OCCC(F)(F)F)ncc1C#N [Cmpd 4]
5,< 100 nM,CC1(C)C[C@H](Nc2nc(NCc3cncnc3OCCC(F)(F)F)ncc2C#N)CC[C@@H]1O [Cmpd 6]
6,< 100 nM,CC1(C)[C@@H](O)C[C@H]1Nc1nc(NCc2cncnc2OCC(F)F)ncc1C(F)(F)F [Cmpd 7]
7,< 100 nM,CC1(C)C[C@H](Nc2nc(NCc3cncnc3OCCC(F)(F)F)ncc2C(F)(F)F)CC[C@@H]1O [Cmpd 8]
8,< 100 nM,CC(C)(F)c1ncncc1CNc1ncc(C#N)c(N[C@@H]2CC[C@H](O)C(C)(C)C2)n1 [Cmpd 10]
9,< 100 nM,CC(F)(F)COc1ncncc1CNc1ncc(C(F)(F)F)c(N[C@@H]2C[C@H](O)C2(C)C)n1 [Cmpd 13]
10,< 100 nM,CC(C)(F)c1ncncc1CNc1ncc(C#N)c(N[C@@H]2C[C@H](CO)C2(C)C)n1 [Cmpd 15]
11,< 100 nM,CC(F)(F)COc1ncncc1CNc1ncc(C#N)c(N[C@@H]2C[C@H](O)C2(C)C)n1 [Cmpd 16]
12,< 100 nM,CNC(=O)[C@H]1CC[C@@H](Nc2nc(NCc3cnccc3C(F)(F)F)ncc2C(F)(F)F)CC1 [Cmpd 17]
13,< 100 nM,CC1(C)C[C@H](Nc2nc(NCc3cnccc3C(F)(F)F)ncc2C(F)(F)F)CC[C@@H]1O [Cmpd 18]
14,< 100 nM,Cc1ccc(Oc2ncncc2CNc2ncc(C(F)(F)F)c(N[C@H]3CC[C@@H](O)CC3)n2)cc1 [Cmpd 19]
15,< 100 nM,CC(C)c1ncncc1CNc1ncc(C(F)(F)F)c(N[C@@H]2C[C@H](O)C2(C)C)n1 [Cmpd 20]
16,< 100 nM,CC1(C)C[C@H](Nc2nc(NCc3cncnc3OCCF)ncc2C#N)CC[C@@H]1O [Cmpd 21]
17,< 100 nM,CNC(=O)[C@H]1CC[C@@H](Nc2nc(NCc3cncnc3Oc3cccc(C)c3)ncc2C#N)CC1 [Cmpd 22]
18,< 100 nM,CC1(C)[C@@H](O)C[C@H]1Nc1nc(NCc2cnccc2C(F)(F)F)ncc1C(F)(F)F [Cmpd 24]

row,IC50,Structure (SMILES)
1,< 100 nM,CCOc1ncncc1CNc1ncc(C(F)(F)F)c(N[C@@H]2CC[C@H](O)C(C)(C)C2)n1 [Cmpd 25]
2,< 100 nM,Cc1ccc(Oc2ncncc2CNc2ncc(C#N)c(N[C@H]3CC[C@@H](O)CC3)n2)cc1 [Cmpd 26]
3,< 100 nM,Cc1ccc(Oc2ncncc2CNc2ncc(C#N)c(N[C@H]3CC[C@@](C)(O)CC3)n2)cc1 [Cmpd 28]
4,< 100 nM,CC(F)(F)COc1ncncc1CNc1ncc(C(F)(F)F)c(N[C@@H]2CC[C@H](O)C(C)(C)C2)n1 [Cmpd 29]
5,< 100 nM,CC1(C)C[C@H](Nc2nc(NCc3cncnc3C(F)(F)F)ncc2C(F)(F)F)CC[C@@H]1O [Cmpd 30]
6,< 100 nM,Cc1ccc(Oc2ncncc2CNc2ncc(C(F)(F)F)c(N[C@H]3CC[C@@](C)(O)CC3)n2)cc1 [Cmpd 31]
7,< 100 nM,CC1(C)[C@@H](CO)C[C@H]1Nc1nc(NCc2cnccc2C(F)(F)F)ncc1C(F)(F)F [Cmpd 32]
8,< 100 nM,CC1(C)[C@H](O)C[C@H]1Nc1nc(NCc2cnccc2C(F)(F)F)ncc1C(F)(F)F [Cmpd 33]
9,< 100 nM,CC1(C)C[C@H](Nc2nc(NCc3cncnc3OCC(F)F)ncc2C#N)CC[C@@H]1O [Cmpd 34]
10,< 100 nM,CC(C)c1ncncc1CNc1ncc(C#N)c(N[C@@H]2C[C@H](O)C2(C)C)n1 [Cmpd 35]
11,< 100 nM,CC(F)(F)c1ncncc1CNc1ncc(C#N)c(N[C@@H]2CC[C@H](O)C(C)(C)C2)n1 [Cmpd 36]
12,< 100 nM,CCOc1ncncc1CNc1ncc(C#N)c(N[C@@H]2CC[C@H](O)C(C)(C)C2)n1 [Cmpd 37]
13,< 100 nM,Cc1cccc(Oc2ncncc2CNc2ncc(C#N)c(N[C@H]3CC[C@@](C)(O)CC3)n2)c1 [Cmpd 38]
14,< 100 nM,CC1(C)C[C@H](Nc2nc(NCc3c[n+]([O-])ccc3C(F)(F)F)ncc2C(F)(F)F)CC[C@@H]1O [Cmpd 40]
15,< 100 nM,CC1(C)[C@@H](O)C[C@H]1Nc1nc(NCc2c[n+]([O-])ccc2C(F)(F)F)ncc1C(F)(F)F [Cmpd 41]
16,< 100 nM,CC1(C)C[C@H](Nc2nc(NCc3c[n+]([O-])ccc3C(F)(F)F)ncc2C#N)CC[C@@H]1O [Cmpd 42]
17,< 100 nM,CC1(C)C[C@H](Nc2nc(NCc3cncnc3C(F)(F)F)ncc2C#N)CC[C@@H]1O [Cmpd 43]
